Results from publication PMC6017250, “Novel Inhibitor Discovery of Staphylococcus aureus Sortase B and the Mechanism Confirmation via Molecular Modeling” (Molecules : A Journal of Synthetic Chemistry and Natural …, 2018).
pKd: −log10 of the molar value.

What was measured:
Format in all cases: binding
Sortase B (SrtBΔ30) [1] = target: T1, Sortase B (SrtBΔ30) (Staphylococcus aureus, UniProt Q2FZE3, N116A); assay: fluorescence spectroscopy quenching (association constant KA)
T1 construct: gene srtB; SrtBΔ30
T1 sequence (Q2FZE3 31-244 N116A): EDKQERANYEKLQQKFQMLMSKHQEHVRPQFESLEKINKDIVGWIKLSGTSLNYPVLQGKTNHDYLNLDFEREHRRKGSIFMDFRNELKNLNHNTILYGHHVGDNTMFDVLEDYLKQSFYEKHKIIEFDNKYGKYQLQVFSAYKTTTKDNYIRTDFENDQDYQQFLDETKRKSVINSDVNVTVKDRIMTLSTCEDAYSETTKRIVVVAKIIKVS
Excerpt: (§1) fluorescence spectroscopy quenching (association constant KA) on Sortase B (SrtBΔ30) | the binding constants (KA) of the ligand with the mutant proteins were lower

Sortase B (SrtBΔ30) [2] = target: T2, Sortase B (SrtBΔ30) (Staphylococcus aureus, UniProt Q2FZE3, R115A); assay: as above
T2 construct: gene srtB; SrtBΔ30
T2 sequence (Q2FZE3 31-244 R115A): T1 sequence (Q2FZE3 31-244 N116A)
Excerpt: as §1

Sortase B (SrtBΔ30) [3] = target: T3, Sortase B (SrtBΔ30) (Staphylococcus aureus, UniProt Q2FZE3, I182A); assay: as above
T3 construct: gene srtB; SrtBΔ30
T3 sequence (Q2FZE3 31-244 I182A): T1 sequence (Q2FZE3 31-244 N116A)
Excerpt: as §1

Sortase B (SrtBΔ30, WT) = target: T4, Sortase B (SrtBΔ30, WT) (Staphylococcus aureus, UniProt Q2FZE3); assay: fluorescence spectroscopy quenching (association constant KA); also FRET peptide-cleavage inhibition of the purified enzyme, IC50 […]
T4 construct: gene srtB; SrtBΔ30

## c1c2c(cc3c1OCO3)-c1cc3ccc4c(c3c[n+]1CC2)OCO4 [coptisine]
Sortase B (SrtBΔ30) [1]
  pKd: 4.96
Sortase B (SrtBΔ30) [2]
  pKd: 4.92
Sortase B (SrtBΔ30) [3]
  pKd: 4.89
Sortase B (SrtBΔ30, WT)
  pKd: 5.13
